According to patent US20060069132A1, “Azolecarboxamide herbicides” (priority 2004, published 2006):

Columns and labels:
corn = assay: Test C pre-/postemergence herbicide test; format: in vivo, Zea mays; conditions: for Corn plant response rating: Preemergence, scale 0 to 100, 0 no effect, 100 complete control
Procedure, shortened: (§1)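 Greenhouse-grown plants were evaluated visually 12 to 14 days after treatment, with 100 meaning complete control and 0 no effect. Application was preemergence, or postemergence at 2 to 18 cm.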

large crabgrass [1] = assay: Test C pre-/postemergence herbicide test; format: in vivo, Digitaria sanguinalis; conditions: for Crabgrass, Large plant response rating: Preemergence, scale 0 to 100, 0 no effect, 100 complete control
Procedure, shortened: as §1

woolly cupgrass = assay: Test C pre-/postemergence herbicide test; format: in vivo, Eriochloa villosa; conditions: for Cupgrass, Woolly plant response rating: Preemergence, scale 0 to 100, 0 no effect, 100 complete control
Procedure, shortened: as §1

johnsongrass = assay: Test C pre-/postemergence herbicide test; format: in vivo, Sorghum halepense; conditions: for Johnsongrass plant response rating: Preemergence, scale 0 to 100, 0 no effect, 100 complete control
Procedure, shortened: as §1

kochia = assay: Test C pre-/postemergence herbicide test; format: in vivo, Kochia scoparia; conditions: for Kochia plant response rating: Preemergence, scale 0 to 100, 0 no effect, 100 complete control
Procedure, shortened: as §1

lambsquarters = assay: Test C pre-/postemergence herbicide test; format: in vivo, Chenopodium album; conditions: for Lambsquarters plant response rating: Preemergence, scale 0 to 100, 0 no effect, 100 complete control
Procedure, shortened: as §1

rice = assay: Test C flooded paddy test; format: in vivo, Oryza sativa
Procedure, shortened: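 Plants were grown to the 1- to 4-leaf stage (2–18 cm) and then treated postemergence, or grown to the 2-leaf stage for the flooded paddy test. They were held in a greenhouse for 12 to 14 days and then scored by eye against controls, where 0 is no effect and 100 is complete control.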

ducksalad = assay: Test C flooded paddy test; format: in vivo, Heteranthera limosa
barnyardgrass = assay: Test A pre-/postemergence herbicide test; format: in vivo, Echinochloa crus-galli
Procedure, shortened: (§2)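 Plants are held in greenhouse about ten days after treatment, then compared with untreated controls and scored 0 (no effect) to 100 (complete control). Preemergence dosing is a directed soil spray on sown sandy loam; postemergence dosing is spray to runoff at 2–10 cm height.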

large crabgrass [2] = assay: Test A pre-/postemergence herbicide test; format: in vivo, Digitaria sanguinalis
Procedure, shortened: as §2

giant foxtail = assay: Test A pre-/postemergence herbicide test; format: in vivo, Setaria faberi
Procedure, shortened: as §2

velvetleaf = assay: Test A pre-/postemergence herbicide test; format: in vivo, Abutilon theophrasti
Procedure, shortened: as §2

[3] = 62 g ai/ha, preemergence, scale 0 to 100
[4] = 250 g ai/ha, scale 0-100, preemergence
[5] = 500 g ai/ha, scale 0 to 100 (0 no effect, 100 complete control), visual, 12 to 14 days, preemergence
[6] = 125 g ai/ha, scale 0 to 100 (0 no effect, 100 complete control)
[7] = 250 g ai/ha, scale of 0 to 100, 0 is no effect, 100 is complete control
[8] = 500 g ai/ha, visual rating after 12 to 14 days, scale 0 to 100 (0 no effect, 100 complete control)
[9] = Postemergence, 500 g ai/ha, 0 to 100 scale, 0 no effect, 100 complete control
[10] = Postemergence, 2000 g ai/ha, 0 to 100 scale, 0 no effect, 100 complete control
[11] = Preemergence, 500 g ai/ha, visual rating, 0 to 100 scale (0 no effect, 100 complete control)
[12] = Preemergence, 2000 g ai/ha, visual rating, 0 to 100 scale (0 no effect, 100 complete control)
[13] = preemergence, 500 g ai/ha, visual injury, 0 to 100 scale (0 no effect, 100 complete control)
[14] = 125 g ai/ha, scale 0 (no effect) to 100 (complete control), visual, 12 to 14 days, preemergence
[15] = 250 g ai/ha, scale 0 to 100 (0 no effect, 100 complete control), visual, 12 to 14 days, preemergence

CCC1=NN(C(C)(C)C)CC1C(=O)Nc1cc(C(=O)N2CCCC2)ccc1F (racemic) [Compound 341]
Plant response rating, Corn (corn; [3]): 10
Plant response rating (0 = no effect, 100 = complete control), Corn (corn; 125 g ai/ha, preemergence): 60
Plant response rating, Corn (corn; [4]): 85
Plant response rating, Corn (corn; [5]): 90
Plant response rating, Crabgrass, Large (large crabgrass [1]; [3]): 50
Plant response rating (0 = no effect, 100 = complete control), Crabgrass, Large (large crabgrass [1]; 125 g ai/ha, preemergence): 80
Plant response rating, Crabgrass, Large (large crabgrass [1]; [4]): 90
Plant response rating, Crabgrass, Large (large crabgrass [1]; [5]): 100
Plant response rating, Cupgrass, Woolly (woolly cupgrass; [3]): 80
Plant response rating (0 = no effect, 100 = complete control), Cupgrass, Woolly (woolly cupgrass; 125 g ai/ha, preemergence): 80
Plant response rating, Cupgrass, Woolly (woolly cupgrass; [4]): 100
Plant response rating, Cupgrass, Woolly (woolly cupgrass; [5]): 100
Plant response rating, Johnsongrass (johnsongrass; [3]): 15
Plant response rating (0 = no effect, 100 = complete control), Johnsongrass (johnsongrass; 125 g ai/ha, preemergence): 85
Plant response rating, Johnsongrass (johnsongrass; [4]): 100
Plant response rating, Johnsongrass (johnsongrass; [5]): 100
Plant response rating, Kochia (kochia; [3]): 80
Plant response rating (0 = no effect, 100 = complete control), Kochia (kochia; 125 g ai/ha, preemergence): 100
Plant response rating, Kochia (kochia; [4]): 100
Plant response rating, Kochia (kochia; [5]): 100
Plant response rating, Lambsquarters (lambsquarters; [3]): 100
Plant response rating (0 = no effect, 100 = complete control), Lambsquarters (lambsquarters; 125 g ai/ha, preemergence): 100
Plant response rating, Lambsquarters (lambsquarters; [4]): 100
Plant response rating, Lambsquarters (lambsquarters; [5]): 100
Rice plant response rating (rice; 62 g ai/ha, scale 0 to 100): 20
Rice plant response rating (rice; [6]): 50
Rice plant response rating (rice; [7]): 60
Plant response rating, Rice (rice; [8]): 70
Ducksalad plant response rating (ducksalad; 62 g ai/ha, scale 0 to 100): 20
Ducksalad plant response rating (ducksalad; [6]): 50
Ducksalad plant response rating (ducksalad; [7]): 60
Plant response rating, Ducksalad (ducksalad; [8]): 60

CCNC(=O)c1cc(C)nc(NC(=O)c2cc(C(C)(C)C)nn2CC)c1 [Compound 149]
Barnyardgrass plant response rating (barnyardgrass; [9]): 45
Plant response rating, Barnyardgrass (barnyardgrass; [10]): 65
Barnyardgrass plant response rating (barnyardgrass; [11]): 70
Barnyardgrass plant response rating (barnyardgrass; [12]): 90
Crabgrass, Large plant response rating (large crabgrass [2]; [9]): 40
Plant response rating, Crabgrass, Large (large crabgrass [2]; [10]): 75
Crabgrass, Large plant response rating (large crabgrass [2]; [11]): 95
Crabgrass, Large plant response rating (large crabgrass [2]; [12]): 100
Foxtail, Giant plant response rating (giant foxtail; [9]): 40
Plant response rating, Foxtail, Giant (giant foxtail; [10]): 65
Foxtail, Giant plant response rating (giant foxtail; [11]): 70
Foxtail, Giant plant response rating (giant foxtail; [12]): 100
Velvetleaf plant response rating (velvetleaf; [9]): 30
Plant response rating, Velvetleaf (velvetleaf; [10]): 40
Velvetleaf plant response rating (velvetleaf; [12]): 25
Velvetleaf plant response rating (velvetleaf; [13]): 0
Plant response rating, Corn (corn; [3]): 0
Plant response rating, Corn (corn; [14]): 0
Plant response rating, Corn (corn; [15]): 10
Corn plant response rating (corn; 500 g ai/ha): 10
Plant response rating, Crabgrass, Large (large crabgrass [1]; [3]): 20
Plant response rating, Crabgrass, Large (large crabgrass [1]; [14]): 90
Plant response rating, Crabgrass, Large (large crabgrass [1]; [15]): 100
Crabgrass, Large plant response rating (large crabgrass [1]; 500 g ai/ha): 100
Plant response rating, Cupgrass, Woolly (woolly cupgrass; [3]): 0
Plant response rating, Cupgrass, Woolly (woolly cupgrass; [14]): 5
Plant response rating, Cupgrass, Woolly (woolly cupgrass; [15]): 20
Cupgrass, Woolly plant response rating (woolly cupgrass; 500 g ai/ha): 70
Plant response rating, Johnsongrass (johnsongrass; [3]): 10
Plant response rating, Johnsongrass (johnsongrass; [14]): 60
Johnsongrass plant response rating (johnsongrass; 500 g ai/ha): 100
Plant response rating, Kochia (kochia; [3]): 0
Plant response rating, Kochia (kochia; [14]): 10
Kochia plant response rating (kochia; 500 g ai/ha): 90
Plant response rating, Lambsquarters (lambsquarters; [3]): 75
Plant response rating, Lambsquarters (lambsquarters; [14]): 95
Lambsquarters plant response rating (lambsquarters; 500 g ai/ha): 95

C=CCNC(=O)c1cccc(NC(=O)c2sc(C(C)(C)C)nc2C)c1 [Compound 202]
Barnyardgrass plant response rating (barnyardgrass; [9]): 45
Plant response rating, Barnyardgrass (barnyardgrass; [10]): 80
Barnyardgrass plant response rating (barnyardgrass; [12]): 80
Barnyardgrass plant response rating (barnyardgrass; [13]): 45
Crabgrass, Large plant response rating (large crabgrass [2]; [9]): 30
Plant response rating, Crabgrass, Large (large crabgrass [2]; [10]): 65
Crabgrass, Large plant response rating (large crabgrass [2]; [12]): 100
Crabgrass, Large plant response rating (large crabgrass [2]; [13]): 85
Foxtail, Giant plant response rating (giant foxtail; [9]): 30
Plant response rating, Foxtail, Giant (giant foxtail; [10]): 50
Foxtail, Giant plant response rating (giant foxtail; [12]): 80
Foxtail, Giant plant response rating (giant foxtail; [13]): 55
Velvetleaf plant response rating (velvetleaf; [9]): 30
Plant response rating, Velvetleaf (velvetleaf; [10]): 30
Velvetleaf plant response rating (velvetleaf; [12]): 85
Velvetleaf plant response rating (velvetleaf; [13]): 35
Plant response rating, Corn (corn; [3]): 0
Plant response rating, Corn (corn; [14]): 0
Plant response rating, Corn (corn; [4]): 0
Corn plant response rating (corn; 500 g ai/ha): 10
Plant response rating, Crabgrass, Large (large crabgrass [1]; [3]): 80
Plant response rating, Crabgrass, Large (large crabgrass [1]; [14]): 95
Plant response rating, Crabgrass, Large (large crabgrass [1]; [4]): 95
Crabgrass, Large plant response rating (large crabgrass [1]; 500 g ai/ha): 95
Plant response rating, Cupgrass, Woolly (woolly cupgrass; [3]): 0
Plant response rating, Cupgrass, Woolly (woolly cupgrass; [14]): 10
Plant response rating, Cupgrass, Woolly (woolly cupgrass; [4]): 20
Cupgrass, Woolly plant response rating (woolly cupgrass; 500 g ai/ha): 60
Plant response rating, Johnsongrass (johnsongrass; [3]): 0
Plant response rating, Johnsongrass (johnsongrass; [14]): 40
Plant response rating, Johnsongrass (johnsongrass; [4]): 70
Johnsongrass plant response rating (johnsongrass; 500 g ai/ha): 75
Plant response rating, Kochia (kochia; [3]): 60
Plant response rating, Kochia (kochia; [14]): 85
Plant response rating, Kochia (kochia; [4]): 85
Kochia plant response rating (kochia; 500 g ai/ha): 95
Plant response rating, Lambsquarters (lambsquarters; [3]): 40
Plant response rating, Lambsquarters (lambsquarters; [14]): 90
Plant response rating, Lambsquarters (lambsquarters; [4]): 100
Lambsquarters plant response rating (lambsquarters; 500 g ai/ha): 100
